Consider two compounds from patent US20250170117A1, “MODULATORS OF ACKR3 AND USES THEREOF” (InterAx Biotech AG, priority 2022, published 2025).

SMILES strings stand for the structures. Structures can show the parent of a compound that is named as a salt.

Series [1] deals with T1, NanoLuc-hACKR3 (Homo sapiens, UniProt P25106).
T1 construct: expressed in transfected cells; host or cells: HEK293T (transient, PEI; membrane preparation)
Description: NanoBRET binding study (displacement of fluorescently labelled CXCL12). The following applies: displacement of 0.3 nM CXCL12-AF647; membranes of HEK293T cells expressing NanoLuc-ACKR3; 1 hour incubation; read-out: Affinity. Here is the method:
Membranes of HEK293T cells that transiently express the NanoLuc-hACKR3 were produced. 2 million HEK293T cells were seeded per […] dish and were transfected the next day using a DNA/PEI-mix containing 0.25 μg plasmid DNA encoding for the ACKR3, 4.75 μg pcDEF3 plasmid DNA and 30 μg linear PEI. Two days after transfection, cells were collected in PBS and pelleted by centrifugation. Cell pellets were resuspended in ice-cold membrane buffer (15 mM Tris, 0.3 mM EDTA, 2 mM MgCl2, pH 7.4 at 4° C.) and were dounce-homogenized on ice by plunging the pestle […] with 1500 rpm. Cell homogenates were subsequently subjected to two freeze-thaw cycles using liquid nitrogen. Next, the cell homogenates were centrifuged at 40,000 g and pellets were resuspended in Tris-sucrose buffer (20 mM Tris, 250 mM Sucrose, pH 7.4 at 4° C.). Finally, the membrane samples were homogenized using a 23-gauge needle, snap-frozen with liquid nitrogen and stored until further experimentation at −80° C.
Binding reactions were measured in triplicate on white low-volume 384-well plates and started by combining 0.3 nM fluorescently labelled CXCL12 (CXCL12 labelled with a AF647® dye in a molar ratio of dye:peptide of 1:1, purchased from ALMAC, h-SDF-1α (AF647®), cat. No. CAF-11, Sequence:
[…](Ale xa647®)ALN), increasing concentrations of test compound (10^−5 M-10^−11 M) with 35 ng membranes (protein content) per well of HEK293T cells expressing the NanoLuc-ACKR3. All dilutions were prepared in HBSS supplemented with 0.2% BSA. After assembling the binding reaction, the plate was flash-centrifuged at 500 g. Binding reactions were then incubated for 1 hour after which NanoGlo substrate was added (310 times diluted from stock concentration) to a final volume of 13.5 μL. The reaction plate was again pulse-centrifuged to 500 g and the total light intensity was measured for 460 nm wavelength with 80 nm bandwidth and separately for wavelengths ≥610 nm using the PHERAstar-FSX (BMG Labtech, Ortenberg, Germany) with a dual emission filter. The ratio of light intensities (>610 nm over 460 nm) is a measure for the relative binding of CXCL12-A647 to the NanoLuc-ACKR3. The pharmacological data are presented in Appendix 1.

Series [2] is described as follows: Single-dose pharmacokinetics study in mice. The following applies: male CD1 mice, IP, 30 mg/kg; for pharmacokinetic profiles (half-lives) compared with reference compound: versus ACT-1004-1239; for half-life: mouse, blood, LC-MS/MS, read-out: PK half-life. Type of series: in vivo. Here is the method:
Male CD1 mice were administered IP with compound dissolved in vehicle (10% HP-β-CD in 100 mM Citrate buffer, pH 7) at a dose of 30 mg/kg and mice were sacrificed at different time points (n=3 per time point) following compound administration. Blood samples were harvested at different time points and compound concentration was determined by LC-MS/MS.

Series [3] can be described thus: In vitro microsomal stability assay (metabolic stability). Format: in vitro ADME, mouse. The following applies: for half-life at 10 μM: mouse liver microsomes (male CD-1), NADPH regenerative system, 10 μM compound, 15, 30 or 60 minutes; for metabolic stability compared with reference compound: mouse liver microsomes, versus ACT-1004-1239. How it is done: Mouse liver microsomes (from S9 liver fraction from male CD-1 mice) are co-incubated with an NADPH regenerative system (1.3 mM NADP+, 3.3. mM glucose-6-phoase, 3.3 mM MgCl2 and 0.4 units/ml glucose-6-phosphate-dehydrogenase) and 10 μM compound for 15, 30 or 60 minutes. Reaction was terminated by centrifugation at max speed and samples were analyzed by LC-MS.
A general note: Liver microsomes are a subcellular fraction often used to study metabolism.

In series [4] the test system is CXCL12. Description: Target engagement study in mice (blood CXCL12 by ELISA). Type of series: in vivo. The following applies: male CD1 mice, IP, 30 mg/kg; for target engagement compared with reference compound: 16 h, versus ACT-1004-1239. Here is the method:
Male CD1 mice were administered IP with compound dissolved in vehicle (10% HP-β-CD in 100 mM Citrate buffer, pH 7) at a dose of 30 mg/kg and mice were sacrificed 16 h (n=3 per time point) following compound administration. Blood samples were harvested and CXCL12 concentration was determined by CXCL12 ELISA kit.

T1 sequence (P25106 whole entry): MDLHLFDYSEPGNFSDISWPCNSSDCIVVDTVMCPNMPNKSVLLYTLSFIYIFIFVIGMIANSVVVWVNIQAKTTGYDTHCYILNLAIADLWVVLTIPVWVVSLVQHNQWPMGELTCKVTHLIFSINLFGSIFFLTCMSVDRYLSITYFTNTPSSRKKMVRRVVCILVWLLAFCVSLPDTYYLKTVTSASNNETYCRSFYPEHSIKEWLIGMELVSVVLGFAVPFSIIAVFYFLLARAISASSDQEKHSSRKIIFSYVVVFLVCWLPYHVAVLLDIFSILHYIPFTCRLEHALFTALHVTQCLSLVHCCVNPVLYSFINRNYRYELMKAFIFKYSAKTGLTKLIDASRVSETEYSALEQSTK

In the case of `O=C(NCC1CCN(C2CCCCC2)CC1)c1cc(-c2ccc(F)cc2F)on1` [Molecule 1, N-[(1-cyclohexylpiperidin-4-yl)methyl]-5-(2,4-difluorophenyl)-1,2-oxazole-3-carboxamide HCl], in series [1], the Ki is at most 0.1 µM. For the same compound, in series [2], the “pharmacokinetic profiles (half-lives) compared with reference compound” value is on record as “better than the reference compound” and the half-life (commonly the time needed for the level to fall by half in the phase considered) lay within 2 to 4 h. Besides, in series [3], the half-life at 10 μM is over 10 h and the “metabolic stability compared with reference compound” value is “comparable or better than the reference compound”. Besides, the “target engagement compared with reference compound” value in series [4] is recorded as “comparable or better than the reference compound”.

For the compound `O=C(NCC1CCN(Cc2ccc(N3CCCC3)cc2)CC1)c1cc(-c2ccc(F)cc2F)on1` [Molecule 44, 5-(2,4-difluorophenyl)-N-((1-(4-(pyrrolidin-1-yl)benzyl)piperidin-4-yl)methyl)isoxazole-3-carboxamide], in series [1], the Ki is at most 0.1 µM. In addition, in series [2], the “pharmacokinetic profiles (half-lives) compared with reference compound” value is “better than the reference compound” and the half-life was over 4 h. For the same compound, in series [3], the half-life at 10 μM is 2 to 4 h and the “metabolic stability compared with reference compound” value is listed as “comparable or better than the reference compound”. Moreover, in series [4], the “target engagement compared with reference compound” value is “comparable or better than the reference compound”. For the same compound, in series [4] (blood 16 h after administration, CXCL12 ELISA), the “Target engagement (CXCL12 fold-increase)” value is on record as “++ (>3 = ++)”.
